# ChEMBL document CHEMBL1201862, “PubChem BioAssay data set” (2004)
# Calls of active or inactive are those of the source.
# Experiments:
# HEK293 [1] = experiment: inhibition of NOD1-driven NF-kB reporter – cell-based, luminescence, uHTS, primary screen (AID 1578); assay type: functional; details: Homo sapiens
# HEK293 [2] = experiment: cells; assay type: functional, cell-based; details: Homo sapiens
# HEK293 [3] = experiment: NOD2 signaling inhibitors in MDP-stimulated cells, cell-based, uHTS, luminescence (AID 2001); assay type: functional; details: Homo sapiens
# HEK293 [4] = experiment: cells; assay type: functional, cell-based; details: Homo sapiens; remark: listed apart in the source
# [5] = target: Nucleotide-binding oligomerization domain-containing protein 2 (Homo sapiens, UniProt Q9HC29); experiment: inhibition of NOD2-driven NF-kB reporter – cell-based, luminescence, uHTS, HEK293 (AID 1566); assay type: functional
# Chain of Nucleotide-binding oligomerization domain-containing protein 2 (Q9HC29 whole entry, the tested form may be a part): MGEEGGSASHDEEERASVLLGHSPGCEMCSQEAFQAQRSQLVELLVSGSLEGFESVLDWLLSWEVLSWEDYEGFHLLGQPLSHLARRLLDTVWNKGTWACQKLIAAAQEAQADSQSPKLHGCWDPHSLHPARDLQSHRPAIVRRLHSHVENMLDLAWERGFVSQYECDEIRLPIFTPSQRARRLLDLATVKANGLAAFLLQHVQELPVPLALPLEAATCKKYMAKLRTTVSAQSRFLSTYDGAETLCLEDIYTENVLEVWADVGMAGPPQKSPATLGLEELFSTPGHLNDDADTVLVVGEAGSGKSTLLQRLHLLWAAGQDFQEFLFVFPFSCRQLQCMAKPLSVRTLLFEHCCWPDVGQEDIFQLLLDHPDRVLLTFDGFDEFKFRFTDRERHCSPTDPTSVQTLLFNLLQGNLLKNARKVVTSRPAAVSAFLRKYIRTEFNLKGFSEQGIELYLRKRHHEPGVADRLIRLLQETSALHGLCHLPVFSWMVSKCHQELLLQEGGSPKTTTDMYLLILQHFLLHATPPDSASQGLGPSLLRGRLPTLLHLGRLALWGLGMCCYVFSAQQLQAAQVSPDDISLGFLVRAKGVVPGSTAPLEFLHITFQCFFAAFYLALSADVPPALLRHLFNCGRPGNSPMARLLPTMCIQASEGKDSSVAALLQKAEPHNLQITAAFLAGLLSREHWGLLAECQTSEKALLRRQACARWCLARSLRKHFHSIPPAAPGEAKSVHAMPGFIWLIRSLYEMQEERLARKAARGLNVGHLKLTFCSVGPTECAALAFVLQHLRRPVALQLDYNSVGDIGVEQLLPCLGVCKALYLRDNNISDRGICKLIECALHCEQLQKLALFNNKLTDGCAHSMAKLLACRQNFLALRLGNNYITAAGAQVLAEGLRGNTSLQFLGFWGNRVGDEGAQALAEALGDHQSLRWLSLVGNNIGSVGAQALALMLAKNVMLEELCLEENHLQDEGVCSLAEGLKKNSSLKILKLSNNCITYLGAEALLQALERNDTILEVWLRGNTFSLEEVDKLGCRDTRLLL
# HEK293 [6] = experiment: cells; assay type: functional, cell-based; details: Homo sapiens; remark: listed apart in the source
# [7] = target: Neurotensin receptor type 1 (Homo sapiens, UniProt P30989); assay type: functional;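 further: Image-based confirmatory dose-response assay measuring agonist activity at NTR1; NTR1-expressing U2OS osteosarcoma cells imaged for beta-arrestin GFP spot formation; agonist potency where compounds increase beta-arrestin recruitment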
# Chain of Neurotensin receptor type 1 (P30989 whole entry): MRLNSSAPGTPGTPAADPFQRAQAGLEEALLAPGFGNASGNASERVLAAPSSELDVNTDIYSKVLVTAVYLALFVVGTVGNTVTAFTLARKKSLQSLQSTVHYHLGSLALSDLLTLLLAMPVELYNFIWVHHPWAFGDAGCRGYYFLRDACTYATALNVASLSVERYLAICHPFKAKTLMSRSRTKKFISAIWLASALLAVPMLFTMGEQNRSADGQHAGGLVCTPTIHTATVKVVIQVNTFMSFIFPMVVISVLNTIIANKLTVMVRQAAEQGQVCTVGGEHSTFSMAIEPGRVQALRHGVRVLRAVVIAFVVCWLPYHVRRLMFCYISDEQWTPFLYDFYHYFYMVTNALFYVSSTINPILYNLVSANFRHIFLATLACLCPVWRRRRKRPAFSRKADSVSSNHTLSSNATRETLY
# [8] = Luminescence-based cell-based high throughput dose response assay to identify activators of the DAF-12 from the parasite S. stercoralis (ssDAF-12).; assay type: functional
# [9] = Fluorescence-based cell-based high throughput dose response assay for inhibitors of the interaction of nucleotide-binding oligomerization domain containing 2 (NOD2) and the receptor-interacting serine-threonine kinase 2 (RIPK2).; assay type: functional, Homo sapiens; details: Homo sapiens
# [10] = target: T1, Microphthalmia-associated transcription factor (Homo sapiens, UniProt O75030); experiment: reducers of TRPM1 reporter luminescence, concentration series – cell-based, SK-MEL-5, cherry-picked, set 3, MITF inhibitor project, dose response (AID 493073); assay type: functional;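 further: SK-MEL-5 melanoma cells with luciferase driven by the MITF target TRPM1 promoter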
# T1 sequence (O75030 whole entry): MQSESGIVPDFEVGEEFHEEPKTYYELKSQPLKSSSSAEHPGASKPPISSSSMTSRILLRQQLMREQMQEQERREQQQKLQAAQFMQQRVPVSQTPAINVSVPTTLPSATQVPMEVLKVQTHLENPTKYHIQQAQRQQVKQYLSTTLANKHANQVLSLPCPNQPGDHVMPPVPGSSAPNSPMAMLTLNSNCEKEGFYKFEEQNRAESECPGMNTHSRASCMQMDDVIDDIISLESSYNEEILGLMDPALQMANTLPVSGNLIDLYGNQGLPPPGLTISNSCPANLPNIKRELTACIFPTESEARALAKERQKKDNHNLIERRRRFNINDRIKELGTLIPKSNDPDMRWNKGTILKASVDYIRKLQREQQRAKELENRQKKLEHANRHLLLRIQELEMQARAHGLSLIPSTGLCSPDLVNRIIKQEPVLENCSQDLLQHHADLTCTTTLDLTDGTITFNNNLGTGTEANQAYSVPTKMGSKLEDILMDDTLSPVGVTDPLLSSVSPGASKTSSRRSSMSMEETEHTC
# [11] = restored growth of temperature-sensitive Burl-1 yeast – whole organism, S. cerevisiae, Burl-1 ts mutant, luminescence, counter-screen for SUMOylation pathway inhibitor project, dose response (AID 463199); assay type: functional
# Large T antigen = Large T antigen (Simian virus 40, UniProt P03070); assay type: functional, Betapolyomavirus macacae;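 further: Confirmatory-stage PubChem screen for compounds that inhibit SV40 T antigen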
# Chain of Large T antigen (P03070 whole entry): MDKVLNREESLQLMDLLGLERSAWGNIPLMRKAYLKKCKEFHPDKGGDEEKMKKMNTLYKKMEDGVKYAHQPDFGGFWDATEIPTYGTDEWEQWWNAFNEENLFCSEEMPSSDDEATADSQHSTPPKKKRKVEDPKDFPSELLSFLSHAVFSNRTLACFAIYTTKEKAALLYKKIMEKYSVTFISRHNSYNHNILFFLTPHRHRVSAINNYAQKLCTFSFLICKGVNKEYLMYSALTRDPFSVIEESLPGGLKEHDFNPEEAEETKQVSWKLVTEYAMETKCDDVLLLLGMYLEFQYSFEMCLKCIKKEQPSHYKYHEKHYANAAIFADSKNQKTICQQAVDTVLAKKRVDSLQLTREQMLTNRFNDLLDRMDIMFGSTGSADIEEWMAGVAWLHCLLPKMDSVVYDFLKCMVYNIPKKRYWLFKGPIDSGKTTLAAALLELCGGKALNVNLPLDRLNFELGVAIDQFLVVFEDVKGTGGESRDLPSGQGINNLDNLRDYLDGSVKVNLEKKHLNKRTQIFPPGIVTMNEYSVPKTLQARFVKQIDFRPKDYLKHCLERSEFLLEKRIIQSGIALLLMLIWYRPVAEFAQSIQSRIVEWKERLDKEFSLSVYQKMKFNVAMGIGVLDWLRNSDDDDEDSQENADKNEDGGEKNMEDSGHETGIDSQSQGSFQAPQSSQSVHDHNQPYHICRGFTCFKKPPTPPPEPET
# [12] = target: Glucose-6-phosphate 1-dehydrogenase (Homo sapiens, UniProt P11413); experiment: inhibition of Homo sapiens G6PD, dose series – biochemical, fluorescence, selectivity assay for P. falciparum G6PD inhibitor project, dose response (AID 504792); assay type: functional
# Chain of Glucose-6-phosphate 1-dehydrogenase (P11413 whole entry): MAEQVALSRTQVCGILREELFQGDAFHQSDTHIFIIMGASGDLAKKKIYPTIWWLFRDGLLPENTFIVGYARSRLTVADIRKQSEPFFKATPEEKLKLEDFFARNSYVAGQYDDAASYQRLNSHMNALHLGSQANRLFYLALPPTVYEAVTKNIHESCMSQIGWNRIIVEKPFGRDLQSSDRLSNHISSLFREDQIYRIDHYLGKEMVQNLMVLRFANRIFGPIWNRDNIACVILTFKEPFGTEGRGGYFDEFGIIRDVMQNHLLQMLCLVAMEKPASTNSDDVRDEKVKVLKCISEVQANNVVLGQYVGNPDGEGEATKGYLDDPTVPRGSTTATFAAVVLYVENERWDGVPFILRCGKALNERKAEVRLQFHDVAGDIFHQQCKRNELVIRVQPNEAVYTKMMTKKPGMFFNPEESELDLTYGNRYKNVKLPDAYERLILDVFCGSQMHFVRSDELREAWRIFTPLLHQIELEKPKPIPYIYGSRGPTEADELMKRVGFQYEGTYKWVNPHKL
# [13] = NIH3T3 cell viability loss – ATP luminescence, mouse fibroblasts, counter-screen, dose response (AID 2010); assay type: functional, cell-based;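 further: cells exposed to compound for about 90 hours before reading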
# [14] = Trypanosoma cruzi growth suppression in host cells – NIH3T3 host cells, beta-gal luminescence, confirmation (AID 2044); assay type: functional, cell-based;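 further: intracellular parasites grown in NIH/3T3 mouse fibroblasts as host cells; luminescent beta-galactosidase reporter signal from transgenic T. cruzi replicating inside host cells; inhibitors lower the luminescence signal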
# Bcl-2-like protein 10 = Bcl-2-like protein 10 (Homo sapiens, UniProt Q9HD36); experiment: Bcl-B/TR3 peptide binding disruption – biochemical, fluorescence polarization, FITC-TR3 peptide, selectivity assay for Bfl-1 inhibitor project, primary screen (AID 748);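 further: fluorescence polarization from a fluorescein-labelled TR3 peptide binding purified Bcl-B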
# Chain of Bcl-2-like protein 10 (Q9HD36 whole entry): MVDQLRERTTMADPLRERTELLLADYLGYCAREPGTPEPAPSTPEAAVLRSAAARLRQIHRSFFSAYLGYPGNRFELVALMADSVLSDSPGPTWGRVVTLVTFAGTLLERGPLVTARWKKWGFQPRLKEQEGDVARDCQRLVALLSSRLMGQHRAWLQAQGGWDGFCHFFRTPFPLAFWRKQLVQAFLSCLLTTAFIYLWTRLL
# [15] = target: G-protein coupled receptor 55 (Homo sapiens, UniProt Q9Y2T6); experiment: selective activators of receptor GPR55 – imaging, U2OS cells, beta-arrestin-GFP redistribution, primary screen (AID 1961); assay type: functional
# Chain of G-protein coupled receptor 55 (Q9Y2T6 whole entry): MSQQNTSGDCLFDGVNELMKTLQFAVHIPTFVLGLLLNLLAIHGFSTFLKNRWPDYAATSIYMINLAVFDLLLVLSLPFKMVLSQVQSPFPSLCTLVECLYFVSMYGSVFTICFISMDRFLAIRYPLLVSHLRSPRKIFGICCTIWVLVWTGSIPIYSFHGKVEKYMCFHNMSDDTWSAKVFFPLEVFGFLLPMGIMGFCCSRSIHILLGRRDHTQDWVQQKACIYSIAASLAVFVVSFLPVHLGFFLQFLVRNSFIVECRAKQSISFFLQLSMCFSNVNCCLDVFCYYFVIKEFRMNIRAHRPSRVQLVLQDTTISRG
# Coagulation factor XII = target: T2, Coagulation factor XII (Homo sapiens, UniProt P00748); experiment: Factor XIIa Dose Response Confirmation from Single Well HTS. [Related pubchem assays (depositor defined):AID701]; assay type: functional
# T2 sequence (P00748 whole entry): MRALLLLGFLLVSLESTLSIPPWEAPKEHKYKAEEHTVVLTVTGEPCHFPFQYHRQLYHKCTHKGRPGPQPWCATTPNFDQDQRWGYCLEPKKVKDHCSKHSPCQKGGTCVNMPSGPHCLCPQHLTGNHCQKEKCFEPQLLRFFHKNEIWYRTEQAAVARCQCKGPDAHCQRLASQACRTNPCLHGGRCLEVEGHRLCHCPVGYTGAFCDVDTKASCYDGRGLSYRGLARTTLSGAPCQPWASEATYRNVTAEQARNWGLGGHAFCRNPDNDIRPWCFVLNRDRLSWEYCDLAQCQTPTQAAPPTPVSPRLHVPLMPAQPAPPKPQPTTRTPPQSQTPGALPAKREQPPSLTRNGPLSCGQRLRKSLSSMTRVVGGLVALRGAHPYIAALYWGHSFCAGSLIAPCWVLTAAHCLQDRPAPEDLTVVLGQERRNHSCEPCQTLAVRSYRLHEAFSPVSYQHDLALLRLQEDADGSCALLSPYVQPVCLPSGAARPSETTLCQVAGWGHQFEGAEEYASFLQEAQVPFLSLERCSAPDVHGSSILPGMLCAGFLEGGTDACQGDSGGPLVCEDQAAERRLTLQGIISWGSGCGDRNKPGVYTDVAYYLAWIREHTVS
smiles,measurement,setting,value
Cc1nc(N2CCN(C(=O)COc3ccccc3)CC2)c2c(C)c(C)sc2n1,EC50,HEK293 [1],5.68 µM (active)
same,IC50,HEK293 [2],> 20 µM (inactive)
same,IC50,HEK293 [3],5.95 µM (active)
same,IC50,HEK293 [4],5.32 µM (active)
same,EC50,[5],7.34 µM (active)
same,IC50,HEK293 [6],11.9 µM (active)
Cc1cc(N2CCOCC2)ccc1/C=C\[N+](=O)[O-],EC50,[7],22.4 µM (inactive)
same,IC50,[8],> 67.5 µM (inactive)
same,IC50,[9],4.34 µM (active)
same,AC50,[10],22.5 µM (active)
Cc1ccccc1-c1nnc(CN2CCC(C)CC2)o1,AC50,[11],46.9 µM (active)
CC(C)CC1=NN2C(=N)/C(=C\c3coc4ccccc4c3=O)C(=O)N=C2S1,IC50,Large T antigen,18.3 µM (active)
COc1ccc(OC)c(-c2cc(C(=O)Nc3c(C)nn(Cc4ccccc4Cl)c3C)no2)c1,AC50,[11],47.9 µM (active)
O=[N+]([O-])c1ccc(Sc2cccc3cccnc23)c2cccnc12,IC50,[12],> 80 µM (inactive)
same,EC50,[13],> 30 µM (not active)
same,EC50,[14],0.666 µM (active)
Cc1ccc(CNc2ccc3c(c2)OCO3)cc1,IC50,Bcl-2-like protein 10,> 3.13 µM (inactive)
same,EC50,[13],> 60 µM (not active)
same,EC50,[14],1.52 µM (active)
O=C(/C=C/c1cccc(Br)c1)c1ccc2c(c1)OCO2,EC50,[15],4.03 µM (active)
FC(F)(F)c1cnc(Oc2ccc(-c3nnco3)cc2)c(Cl)c1,IC50,Coagulation factor XII,> 50 µM (inactive)
